This is an account of results in patent US20200316087A1, “NOVEL COMBINATION THERAPY FOR ANXIETY DISORDERS, EPILEPSY, AND PAIN” (priority 2017, published 2020).

For data set [1], the system named is immobility in tail-suspension test. As to the kind of experiment: Tail-suspension assay. The data set is classed as in vivo. To be noted: C57Bl/6 mice. Here is the method: Male, C57Bl/6 mice (Envigo, Indianapolis, Ind.) were employed in these experiments. Med Associates Inc. (Fairfax, Vt., USA), apparatus SOF-821 was utilized. The TST was an automated version of published methods in which the tail was secured to a lever on the ceiling of the chamber. The duration of immobility was recorded by a force transducer for a period of 10 min.
Imipramine was dissolved in water.

Another data set concerns rat E18 cortical neurons. Put plainly: Microelectrode array recording of cultured cortical neuron network. The settings on record: 3 μM. It is filed as cell-based. The method, then: Meastro 12 well plates (Axion Biosystems, Atlanta, Ga.) were treated with a solution of 0.1% polyethylenimine for 2-4 hours, rinsed with sterile H2O and let dry overnight. Prior to plating of neurons, the MEAs were treated with solution of 20 μg/ml laminin for a minimum of 1 hour.
Cortices isolated from […] (MEA) were obtained from BrainBits LLC, (Springfield, Ill.) and digested enzymatically with TrypLE Express (Gibco), After 15 minutes of digestion, the tissue was mechanically dissociated with a series of sterile fire-polished glass pipettes of decreasing diameter. The dissociated neurons were plated directly onto substrate-integrated MEA plates and incubated in Nb Active1 (Brainbits LLC, Springfield, Ill.) supplemented with 5% dialyzed fetal bovine serum, 0.25% Glutamax (Gibco). Cell cultures were maintained in tissue incubator (37° C., 6% CO2) and fed twice a week by exchanging half of the medium. The experiments were performed on DIV 19-25 thus allowing partial maturation of the neurons. Prior to the experiment, the cell culture media was replaced with external buffer containing: 129 mM NaCl, 5 mM KCl, 2 mM CaCl, 1 mM […], 10 mM HEPES, 10 mM glucose. To achieve hyper-excitation the external buffer was modified by removal of magnesium or by addition of 1 mM 4aminopyridine (4-AP).
The recordings were obtained at 37° C. using Meastro System with integrated AxIS 2.3 analysis software (Axion Biosystems, Atlanta, Ga.). Channels were sampled simultaneously with a gain of 1200× and a sampling rate of 12.5 kHz/channel. On-line spike detection was done with the AXIS adaptive spike detector. For recordings, a Butterworth band-pass filter (with a high-pass cutoff of 75 Hz and low-pass cutoff of 4000 Hz) was applied along with a variable threshold spike detector set at 7× standard deviation of the rms-noise on each channel. Only wells that did show spontaneous activity (more than 0.3 Hz) on the day planned for the experiment were treated with a compound. Burst was defined as a minimum of 5 spikes occurring with an interspike interval of less than 100 ms. A minimum of one burst per minute was required for bursting analysis. Compounds were added by manual pipetting and the activity was sampled for six minutes prior and post compound addition.
The data were normalized to baseline activity and reported as mean±standard error of the mean (SEM). For single treatment a single sample t-test was used. To compare between group effects, analysis of variance (ANOVA) with Dunnett's multiple comparison test were utilized; P<0.05 was considered significant.

Data set [2] in a line: Unbound plasma and brain concentrations after i.p. dosing. It is filed as in vivo, rats. The settings on record: for Unbound brain concentration / Unbound plasma concentration: male Sprague-Dawley rats, n=3, mean ± S.E.M. From the text: (Table 4). Using these unbound drug concentrations, the PI based on drug levels in plasma was 3 and that based upon brain drug levels was 3.8.

The subject of data set [3] is punished licking (anxiety). As to the kind of experiment: Vogel conflict test. The data set is classed as in vivo. The settings on record: rats. Here is the method: Experiments are conducted as described in the protocol of Alt et al. (Neuropharmacology 2007, 52, 1482-1487). Experimentally-naive adult male Sprague-Dawley rats (Harlan Industries, Indianapolis, Ind.), weighing between 200 and 300 g, are used as subjects. The rats are housed in Plexiglas cages (4 per cage) and given free access to Lab Diet #5001 for rodents (PMI Nutrition International Inc., St. Louis, Mo.). Water is withheld for 20-24 hours prior to the first training session. A 12-hr light/dark cycle is maintained, and all experimental sessions are conducted during the light phase of the cycle at about the same time each day.
The experiments are conducted using operant behavior test chambers ENV-007 (Med Associates Inc., Georgia, Vt., USA), 30.5×24.1×29.2 cm. […] All events are controlled and licking data is recorded by a Compaq computer running MED-PC Version IV (Med Associates Inc., Georgia, Vt., USA).
Rats are put into the chamber on day 1 and 2 with white noise and the houselight illuminated, and allowed to drink for a total of six minutes after the first lick is made. The six minutes is broken into two components, the first three minutes is recorded as the unpunished component and the second three minutes are recorded as the punished component. […]
The mean number of licks for both the unpunished and punished components are analyzed. […]

Entries after “also recorded” stand apart in the source; their conditions may differ.

Consider `C#Cc1ccc2c(c1)C(c1ccccn1)=NCc1c(-c3cnco3)ncn1-2` [KRM-II-81, 5-(8-ethynyl-6-(pyridin-2-yl)-4H-benzo[f]imidazo[1,5-a][1,4]diazepin-3-yl)oxazole], for which the “immobility in tail-suspension test” value in data set [1] (i.p., 100 mg/kg significantly greater than vehicle, 100 mg/kg) is reported as “slight increase in immobility at the higher doses tested; also recorded: not active”. Besides, the “sedation-like effects” value in data set [1] (higher doses tested) is “moderate sedation-like effects”. Moreover, the frequency of bursting in the data set on rat E18 cortical neurons (hyper-excited by 1 mM 4AP, n=6, mean±SEM) is on record as 50.9±8.8 % of control; with rat E18 cortical neurons (hyper-excited by removal of magnesium, n=5, mean±SEM) it was 54.8±7.1 % of control; in the data set with rat E18 cortical neurons (normal magnesium, n=7) it was “no significant effect”; in the data set with rat E18 cortical neurons (reduced magnesium (0.1 mM Mg++), n=4) it was “no significant effect”. Besides, the frequency of spiking is given as 50.5±7.5 % of control in the data set with rat E18 cortical neurons (hyper-excited by 1 mM 4AP, n=7, mean±SEM); 62.2±3.8 % of control with rat E18 cortical neurons (hyper-excited by removal of magnesium, n=7, mean±SEM); “no significant effect” with rat E18 cortical neurons (normal magnesium external solution, n=7); “small depression of spiking” in the data set on rat E18 cortical neurons (reduced magnesium (0.1 mM Mg++), n=4, p>0.05). Besides, the results for the Unbound brain concentration in data set [2] (17.3 mg/kg i.p.) and in data set [2] (121 mg/kg i.p.) were 1.64 ± 0.141 µM and 6.25 ± 1.652 µM, respectively. Further, the Unbound plasma concentration is 3.29 ± 0.107 µM in data set [2] (17.3 mg/kg i.p.) and 10 ± 2.147 µM in data set [2] (121 mg/kg i.p.). For the same compound, the “121/17.3 Ratio, brain” value in data set [2] (ratio of unbound brain concentrations at 121 and 17.3 mg/kg i.p.) is listed as 3.81. Besides, the “121/17.3 Ratio, plasma” value in data set [2] (ratio of unbound plasma concentrations at 121 and 17.3 mg/kg i.p.) worked out at 3.04.

With `C#Cc1ccc2c(c1)C(c1ccccc1)=NCc1c(-c3cnco3)ncn1-2` [KRM-II-82, 5-(8-ethynyl-6-phenyl-4H-benzo[f]imidazo[1,5-a][1,4]diazepin-3-yl)oxazole], the “anxiolytic-like efficacy in Vogel conflict test” value in data set [3] is reported as “did not produce anxiolytic-like efficacy”.
